According to article PMC9658586, “1,4-Naphthoquinone Motif in the Synthesis of New Thiopyrano[2,3-d]thiazoles as Potential Biologically Active Compounds” (Molecules, 2022):
Read-outs that look alike come from different tables or passages of the source.

Legend:
[1] = tested on: human breast adenocarcinoma cells of MCF-7 line; assay: MTT cell viability assay, MCF-7; type: cell-based
Protocol: (§1) The MTT cell viability assay was performed 72 h after cells treatment with various concentrations of studied compounds and doxorubicin, a reference drug. […] It is known that ABCB1 (P-glycoprotein), MRP1/ABCC1 (multidrug resistance protein 1), and BCRP/BCG2 (breast cancer resistance protein) have been reported to be key players in resistance to chemotherapy. […] The p53 has diverse mutations in almost all human tumors, stimulating their hyper-proliferation, invasion/metastasis, and thus, influencing the potency of various chemotherapeutics (i.e., platins and anti-metabolites).
(§2) Human colon carcinoma HCT116 cells, human breast adenocarcinoma cells of MCF-7 line, human T-leukemia Jurkat cells, human chronic myelogenous leukemia K562 cells, and human keratinocytes of HaCaT line were from the Cell Collection of R.E. Kavetsky Institute of Experimental Pathology, Oncology and Radiobiology (Kyiv, Ukraine). Murine macrophages of J774.2 line were a generous gift from Professor Sir John Vane (William Harvey Research Institute, London, UK) via Professor Janusz Marcinkiewicz (Jagiellonian University Medical College, Krakow, Poland). Human colon carcinoma HCT116 p53-/- cells with knockdown of P53 gene, as well as human epidermoid cervix carcinoma KB3-1 cells and its ABCB1-overexpressing subline KBC-1, were kindly provided by Professor W. Berger (Institute of Cancer Research, Medical University of Vienna, Austria). […] Human leukemia monocytic THP-1 cells were kindly provided by Professor M. Herrmann (Department of Internal Medicine, Institute for Clinical Immunology and Rheumatology, University of Erlangen-Nuremberg, Germany). Cells were cultured in DMEM or RPMI-1640 medium supplemented with 10% fetal bovine serum (all were purchased from Biowest, Nuaille, France) at 37 °C in a humidified atmosphere containing 5% CO2.
(§3) MTT assay was used to examine the viability of tumor and pseudo-normal cells after their treatment with studied thiopyrano[2,3-d]thiazole derivatives and doxorubicin (Actavis S.R.L., Bucharest, Romania). Cells were seeded in 96-well plates at a density of 3–5 × 103. After 24 h, cells were treated with compound […], 1,4-NQ (0.1–100 µM), and doxorubicin (0.1–100 µM). After incubation for 72 h, MTT reagent (Sigma-Aldrich, St. Louis, MO, USA) was added to each well, according to the Sigma-Aldrich protocol. An absorbance Reader BioTek ELx800 (BioTek Instruments, Inc., Winooski, VT, USA) was used to measure the reaction product.

[2] = tested on: Murine macrophages of J774.2 line; assay: MTT cell viability assay, J774.2; type: cell-based; conditions: pseudo-normal murine macrophages
Protocol: as §1, §2, §3

[3] = tested on: human chronic myelogenous leukemia K562 cells; assay: MTT cell viability assay, K562; type: cell-based
Protocol: as §1, §2, §3

[4] = tested on: human epidermoid cervix carcinoma KB3-1 cells; assay: MTT cell viability assay, KB3-1; type: cell-based
Protocol: as §1, §2, §3

[5] = tested on: Human colon carcinoma HCT116 p53-/- cells; assay: MTT cell viability assay, HCT116 p53-/-; type: cell-based; conditions: MTT, 72 h, read-out: IC50, HCT116 p53-/-
Protocol: as §1, §2, §3

[6] = tested on: Human colon carcinoma HCT116 cells (HCT116wt); assay: MTT cell viability assay, HCT116wt; type: cell-based
Protocol: as §1, §2, §3

T-47D/Breast Cancer = assay: NCI single-dose screen, T-47D; type: cell-based, human; conditions: 10 μM, 48 h
Protocol: (§4) Considering the results of previous studies of fused thiazolidinones and their analogs, a series of thiopyrano[2,3-d]thiazoles with naphthoquinone fragments in the structure were studied for their anticancer activity. Thus, synthesized thiopyranothiazole derivatives 3.5 and 3.6 were selected by the National Cancer Institute (NCI), U.S., for their anticancer activity at 10 μM concentration toward a panel of sixty cancer cell lines representing nine different types (leukemia, melanoma, lung, colon, CNS, ovarian, renal, prostate, and breast cancers) (Figures S13–S14). Selection for screening based on new derivatives’ ability to add diversity to the NCI small molecules collection and anticancer assays were performed according to the NCI guidelines and protocols previously described. The compounds were added at the mentioned concentration, and the cell cultures were incubated for 48 h. The results for each compound were reported as the growth percent (GP%) of treated cells compared with untreated control cells.
(§5) Anticancer in vitro assay was performed on the human tumor cell lines panel derived from nine neoplastic diseases by the protocol of the Drug Evaluation Branch, National Cancer Institute, Bethesda, MD, USA [44, 45, 46]. […] GP% was spectrophotometrically evaluated vs. controls not treated with test agents.

UO-31/Renal Cancer = assay: NCI single-dose screen, UO-31; type: cell-based, human; conditions: 10 μM, 48 h
Protocol: as §4, §5

SR/Leukemia = assay: NCI single-dose screen, SR; type: cell-based, human; conditions: 10 μM, 48 h
Protocol: as §4, §5

IGROV1/Ovarian Cancer = assay: NCI single-dose screen, IGROV1; type: cell-based, human; conditions: 10 μM, 48 h
Protocol: as §4, §5

RPMI-8226/Leukemia = assay: NCI single-dose screen, RPMI-8226; type: cell-based, human; conditions: 10 μM, 48 h
Protocol: as §4, §5

[7] = tested on: EKVX/Non-Small Cell Lung Cancer; assay: NCI single-dose screen, EKVX; type: cell-based, human; conditions: 10 μM, 48 h
Protocol: as §4, §5

[8] = tested on: panel of sixty cancer cell lines; assay: NCI single-dose (10 μM) anticancer screen, sulforhodamine B, 60-cell-line panel; type: cell-based, human; conditions: 48 h
Protocol: as §4
Anticancer in vitro assay was performed on the human tumor cell lines panel derived from nine neoplastic diseases by the protocol of the Drug Evaluation Branch, National Cancer Institute, Bethesda, MD, USA [44, 45, 46]. Tested compounds were added to the culture at a single concentration (10^−5 M), and the cultures were incubated for 48 h. Endpoint determinations were made with a protein binding dye, sulforhodamine B. Results for each tested compound were reported as the GP% of the treated cells compared to untreated control cells. GP% was spectrophotometrically evaluated vs. controls not treated with test agents.

[9] = tested on: KBC-1 (ABCB1-overexpressing subline of KB3-1); assay: MTT cell viability assay, KBC-1; type: cell-based; conditions: Homo sapiens, 72 h
Protocol: as §1
as §2, with “Cells were cultured in DMEM or RPMI-1640 medium supplemented with 10% fetal bovine serum (all were purchased from Biowest, Nuaille, France) at 37 °C in a humidified atmosphere containing 5% CO2.” left out
MTT assay was used to examine the viability of tumor and pseudo-normal cells after their treatment with studied thiopyrano[2,3-d]thiazole derivatives and doxorubicin (Actavis S.R.L., Bucharest, Romania). […] An absorbance Reader BioTek ELx800 (BioTek Instruments, Inc., Winooski, VT, USA) was used to measure the reaction product.

salmon sperm DNA = assay: DNA/methyl green colorimetric (replacement) assay; type: binding; conditions: 1µM
Protocol: In addition, we used DNA/methyl green colorimetric assay to study the possible interaction of compound 3.6 in DNA. […] This assay was used to measure the displacement of methyl green from DNA by compounds with the ability to intercalate DNA [54].
The capacity of the tested compounds to intercalate into salmon sperm DNA was determined using the methyl green assay. Briefly, salmon sperm DNA (10 mg/mL) was incubated for 1 h at 37 °C with 15 µL of methyl green solution (1 mg/mL in H2O). The compounds were added at concentrations 1 and 10 µM/mL and incubated at 37 °C in the dark for 2 h. Reduction of the absorbance of methyl green at 642 nm induced by the test compounds was measured with a multiplate reader, Plate Reader BioTek Lx80 ( BioTek Instruments, Inc., Winooski, VT, USA). Doxorubicin, a well-known intercalating agent, was used as a positive control.

[10] = tested on: isolated normal human peripheral blood lymphocytes; assay: MTT cell viability assay, isolated lymphocytes; type: cell-based; conditions: Homo sapiens, Lymphocyte, 72 h, read-out: IC50, Isolated lymphocytes, MTT, 72 h, normal human peripheral blood lymphocytes
Protocol: We continued the cytotoxicity study of synthesized derivatives 3.1–3.6 toward tumor and pseudo-normal cells in vitro. The MTT cell viability assay was performed 72 h after cells treatment with various concentrations of studied compounds and doxorubicin, a reference drug. […] The THP-1 cells, monocytes isolated from peripheral blood from an acute monocytic leukemia patient, were also sensitive to the 3.6 treatment. […] The 3.6 inhibited the viability of epidermoid carcinoma (KB3-1 and its ABCB1-overexpressing subline KBC-1) and colon carcinoma (HCT116wt and its p53 knockdown subline HCT116 p53-/-) cells. It is known that ABCB1 (P-glycoprotein), MRP1/ABCC1 (multidrug resistance protein 1), and BCRP/BCG2 (breast cancer resistance protein) have been reported to be key players in resistance to chemotherapy. […] Thus, the p53 status of colon carcinoma cells influenced the anti-tumor effects of the studied 3,5,10,11-tetrahydro-2H-benzo[6,7]thiochromeno[2,3-d][1, 3]thiazole-2,5,10-trione. The p53 has diverse mutations in almost all human tumors, stimulating their hyper-proliferation, invasion/metastasis, and thus, influencing the potency of various chemotherapeutics (i.e., platins and anti-metabolites). […] Based on our findings, one can assume a p53-dependent mode of action for 3.6 toward colon cancer cells.
as §3
The study protocol with human lymphocytes isolated from healthy adult peripheral blood was approved by BioEthics Committee of the Institute of Cell Biology of National Academy of Sciences of Ukraine (protocol No 2 from 27 January 2019), and with written consent of donor.

Row | Compound | melting point [°C] | IC50 ([1]; Homo sapiens, MCF7, 72 h) [µM] | IC50 ([3]; Homo sapiens, K562, 72 h) [µM] | IC50 ([4]; Homo sapiens, KB 3-1, 72 h) [µM] | IC50 ([5]; Homo sapiens, HCT-116) [µM] | IC50 ([6]; Homo sapiens, HCT-116, 72 h) [µM] | IC50 ([2]; Mus musculus, J774.2, 72 h) [µM] | further results
1 | O=C1C2=C(C(=O)c3ccccc31)C(C=Cc1ccccc1)c1sc(=O)[nH]c1S2 (stereo not shown) [Compound 3.1, 11-Styryl-3,11-dihydro-2H-benzo [6,7]thiochromeno [2,3-d]thiazole-2,5,10-trione] | 338 to 340 | 9.19 | 43.7 | 37 | 40.3 | 29.2 | 24.4 | –
2 | 11-(2-Phenylprop-1-en-1-yl)-3,11-dihydro-2H-benzo[6,7]thiochromeno[2,3-d]thiazole-2,5,10-trione [Compound 3.3] | – | – | – | – | – | – | – | IC50 ([1]; 72 h): 26.8 µM; IC50 ([2]; 72 h): 30.5 µM; IC50 ([3]; 72 h): 13 µM; IC50 ([4]; 72 h): 28.8 µM; IC50 [5]: 11.1 µM; IC50 ([6]; 72 h): 15.8 µM
3 | O=C1C=CC(=O)c2ccccc21 [1,4-NQ, 1,4-naphthoquinone] | – | – | – | 20.7 | – | – | – | IC50 [9]: 8.33 µM; percentage of methyl green replacement (salmon sperm DNA): 65%; IC50 [10]: 62.9 µM

Continued, in another order:

Row | melting point [°C] | IC50 ([1]; Homo sapiens, MCF7, 72 h) [µM] | IC50 ([3]; Homo sapiens, K562, 72 h) [µM] | IC50 ([4]; Homo sapiens, KB 3-1, 72 h) [µM] | IC50 ([5]; Homo sapiens, HCT-116) [µM] | IC50 ([6]; Homo sapiens, HCT-116, 72 h) [µM] | Compound | IC50 ([2]; Mus musculus, J774.2, 72 h) [µM] | further results
4 | 330 to 332 | 8.47 | 26 | 39.2 | > 50 | 6.81 | O=C1C2=C(C(=O)c3ccccc31)C(C=Cc1ccccc1[N+](=O)[O-])c1sc(=O)[nH]c1S2 (stereo not shown) [Compound 3.2, 11-(2-Nitrostyryl)-3,11-dihydro-2H-benzo[6,7]thiochromeno[2,3-d]thiazole-2,5,10-trione] | 0.74 | –
5 | 230 to 232 | 34.3 | 7.11 | 26 | 25.2 | 5.54 | CC1(C)C2=C(Sc3[nH]c(=O)sc31)C(=O)c1ccccc1C2=O [Compound 3.4, 11,11-Dimethyl-3,11-dihydro-2H-benzo[6,7]thiochromeno[2,3-d]thiazole-2,5,10-trione] | 11.1 | –
6 | 231 to 233 | > 50 | > 50 | > 50 | > 50 | 43.6 | O=C1C2=C(C(=O)c3ccccc31)C1(CCCC1)c1sc(=O)[nH]c1S2 [Compound 3.5, Spiro[benzo[6,7]thiochromeno[2,3-d]thiazole-11,1’-cyclopentane]-2,5,10(3H)-trione] | > 50 | Most Sensitive Cell Line Growth, % (T-47D/Breast Cancer) (T-47D/Breast Cancer): 51.21%; Most Sensitive Cell Line Growth, % (UO-31/Renal Cancer) (UO-31/Renal Cancer): 55.54%; Most Sensitive Cell Line Growth, % (SR/Leukemia) (SR/Leukemia): 59.89%; Most Sensitive Cell Line Growth, % (IGROV1/Ovarian Cancer) (IGROV1/Ovarian Cancer): 55.15%; Most Sensitive Cell Line Growth, % (RPMI-8226/Leukemia) (RPMI-8226/Leukemia): 53.82%; Most Sensitive Cell Line Growth, % (EKVX/Non-Small Cell Lung Cancer) [7]: 54.98%; Mean Growth, % ([8]; growth percent vs untreated control, 60 cell lines): 88.33%; Range of Growth, % ([8]; range over 60 cell lines): 51.21 to 126.93%
